Where two headings read alike, the source gives them in different places. Where no end group is shown, it is not given here.
Legend:
Type in all cases: cell-based, human
[1] = test system: differentiated HL60 cells; settings: for secretion of β-HA upon stimulation after PTX treatment: cells treated with 50 ng/ml PTX for 16 hours; for Percentage of maximum secretion activity (%/control): control = β-HA released upon 10 μM fMLP; for β-HA secretion from differentiated HL60 cells (%/total): total = β-HA released with 0.05% Triton X-100
Protocol: a. Cultivation of HL60 Cells and Induction to the Differentiated Neutrophil-Like Cells For cultivation, heat-inactivated FCS (final concentration; 10%), streptomycin (final concentration; 100 mg/l), penicillin G (final concentration of 10^5 units/l) and RPMI-1640 culture solution containing 10 mM Hepes (pH 7.4) were used. Cells were cultivated at a cell density of 2×10^5-1.5×10^6 cells/ml in a plastic flask (80 cm^2, 260 ml, Nunc) at 37° C. under stationary conditions with a 5% of CO2 concentration and a 100% of humidity. […] c. […] Measuring β-HA Enzyme Activity The amount of β-HA secreted into the reaction supernatant was determined by measuring the absorbance at 415 nm of p-nitrophenol that was generated by an enzymatic reaction involving p-nitrophenyl N-acetyl-β-D-glucosaminide as a substrate. To be specific, 90 μl of the reaction supernatant was transferred to a 96-well Immuno plate (Nunc) and 60 μl of a substrate solution (10 mM p-nitrophenyl N-acetyl-β-D-glucosaminide/40 mM citrate, 70 mM Na2HPO4, pH 4.5) was added to initiate an enzymatic reaction. Following a 1-hr reaction at 37° C., 100 μl of a reaction quencher (400 mM glycine, pH 10.7) was added to stop the reaction and the absorbance at 415 nm was measured. As a control, cells were treated with Triton X-100 at a final concentration of 0.05% and the amount of β-HA in the supernatant was measured. As another control, the amount of β-HA secreted from cells upon stimulation with fMLP at a final concentration of 10 μM was measured.

[2] = test system: differentiated HL60 cells; test: Migration promoting activity (Chemotaxis Cells), differentiated HL60 cells
Protocol: The migration promoting activity of each of the polypeptides of interest was measured using Chemotaxis Cells (Kurabo) as follows: The differentiated HL60 cells or undifferentiated HL60 cells were washed three times with ice-cooled HBHS and a cell suspension was prepared at a cell density of 4×10^6 cells/ml. The cell suspension was incubated at 37° C. for 10 minutes; thereafter, 500 μl of the cell suspension was transferred to Chemotaxis Cells (2×10^6 cells/Cell), which were put on a micro-well plate filled with pre-heated (37° C.) HBHS containing 1 ml of polypeptide and incubation was performed at 37° C. for 1 hour. Then, the Chemotaxis Cells were removed from the plate and the number of cells that had migrated in each well was counted.
Migration promoting activity was expressed by a chemotaxis index, or the number of cells that migrated upon stimulation was divided by the number of cells migrated without stimuli.
The activity of the human homologues of COSP-1 and fCyt b (1-15) for promoting β-HA secretion and migration promoting activities were measured following the methods described in Examples 4 and 5, respectively. The activity for β-HA secretion was expressed by the percentage for the maximum amount of secretion upon stimulation with 10 μM of fMLP, whereas the activity for migration was expressed by a chemotaxis index, i.e., the ratio of the number of stimulated migrating cells to that of unstimulated migrating cells.

HL60 cells = test system: HL60 cells
Protocol: Cells were cultivated following the method as described in Example 4, except that the RPMI-1640 medium containing contained 15% of FCS, and that in order to differentiate the HL60 cells into neutrophil-like cells, a cell suspension was prepared such that the cell density in the flask would be 0.5×10^6 cells/ml at the time of addition of db-cAMP (final concentration, 0.5 mM). The β-HA secretion promoting activities of COSP-1 and fMLP were measured 24, 48 and 72 hours after the differentiation.

[3] = test system: differentiated HL60 cells; test: Intracellular Ca2+ concentration (fura-2), differentiated HL60 cells; settings: for increase of intracellular Ca2+ concentration in the absence of extracellular Ca2+: absence of Ca2+ (−) versus presence (+); for increase in intracellular Ca2+ concentration upon stimulation after PTX treatment: cells treated with 50 ng/ml PTX for 16 hours; for intracellular Ca2+ concentration: differentiated HL60 cells (+); for intracellular Ca2+ concentration with or without extracellular Ca2+: extracellular Ca2+ present or not
Protocol: (§1) The differentiated HL60 cells or undifferentiated HL60 cells were washed twice with a Hepes-Na solution (140 mM NaCl, 4 mM KCl, 1 mM NaH2PO4, 1 mM MgCl2, 1.25 mM CaCl2, 5 mM Hepes, 11 mM glucose, 0.2% BSA, pH 7.4). Then, Ca^2+ sensitive fluorescence reagent, fura-2/AM, was added to the cell suspension (4 ml: final concentration, 4 μM). The reaction mixture was then shaken gently at room temperature for 60 minutes, shielded from light in order to incorporate fura-2 into the HL60 cells. Subsequently, the cells were washed twice with a Hepes-Na solution and a cell suspension was prepared at a final cell density of 1.0×10^6 cells/ml. One milliliter of the cell suspension was put into reaction cuvettes and stimulated with various samples under stirring at 30° C. Ratios of fluorescence intensity at 500 nm (F) for an excitation wavelength at 340 nm to that at 380 nm were measured with a fluorimeter (CAF-100, Japan Spectroscopic Co., Ltd.) and [Ca^2+]i was calculated following the formula: [Ca^2+]i(nM)=K×{(F−Fmin)/(Fmax−F)}×A/B, wherein
(§2) Fmax: a ratio of fluorescence intensity at 500 nm for an excitation wavelength at 340 nm to that at 380 nm after all cells were solubilized with 0.1% Triton X-100;
(§3) Fmin: a ratio of fluorescence intensity at 500-nm for an excitation wavelength at 340 nm to that at 380 nm after the whole calcium was chelated with 4 mM EGTA;
(§4) A: fluorescence intensity at 500-nm for an excitation wavelength at 380 nm, when all the calcium was chelated with EGTA;
(§5) B: fluorescence intensity at 500-nm for an excitation wavelength at 380 nm, when all cells were solubilized with Triton X-100;
(§6) K: 224 (nM) (the dissociation constant of fura-2).

[4] = test system: undifferentiated HL60 cells; test: Intracellular Ca2+ concentration (fura-2), undifferentiated HL60 cells
Protocol: as §1, §2, §3, §4, §5, §6

CSCC[C@H](NC=O)C(=O)N[C@@H](CC(C)C)C(=O)N[C@@H](Cc1ccccc1)C(=O)O [fMLP, formyl methionyl-leucyl-phenylalanine, reference compound]
secretion of β-HA upon stimulation after PTX treatment [1]: almost completely inhibited | Percentage of maximum secretion activity (%/control) [1]: 100 %/control | β-HA secretion from differentiated HL60 cells (%/total) [1]: 67.4 %/total | activity for migration at the concentrations where β-HA secretion was observed ([2]; Example 12): also observed | concentrations of migration activity relative to the concentration for β-HA secretion ([2]; Example 12): observed at concentrations lower | EC50 (HL60 cells; 24 h): 110 nM | EC50 (HL60 cells; 48 h): 22 nM | EC50 (HL60 cells; 72 h): 9.3 nM | Max. (%/total), maximum secretion on average (HL60 cells; Differentiation 24 hr): 17.4 %/total | Max. (%/total), maximum secretion on average (HL60 cells; Differentiation 48 hr): 40.6 %/total | Max. (%/total), maximum secretion on average (HL60 cells; Differentiation 72 hr): 48.4 %/total | increase of intracellular Ca2+ concentration in the absence of extracellular Ca2+ [3]: reduced | increase in intracellular Ca2+ concentration upon stimulation after PTX treatment [3]: almost completely inhibited | intracellular Ca2+ concentration [3]: increased | intracellular Ca2+ concentration with or without extracellular Ca2+ [3]: increased irrespective of whether extracellular Ca^2+ was present or not | intracellular Ca2+ concentration [4]: did not increase

LSFLIPAGWVLSHLDHYKRSSAA-OH [COSP-1]
promoted secretion of β-HA under Boc-MLF treatment ([1]; Boc-MLF treatment, data not shown): significantly suppressed | secretion of β-HA upon stimulation after PTX treatment [1]: almost completely inhibited | Percentage of maximum secretion activity (%/control) [1]: 93.6 ± 2.8 %/control | β-HA secretion from differentiated HL60 cells (%/total) [1]: 63.1 %/total | migration promoting (attracting) activity [2]: attracting activity | EC50 (HL60 cells; 24 h): 1200 nM | EC50 (HL60 cells; 48 h): 450 nM | EC50 (HL60 cells; 72 h): 270 nM | Max. (%/total), maximum secretion on average (HL60 cells; Differentiation 24 hr): 15.6 %/total | Max. (%/total), maximum secretion on average (HL60 cells; Differentiation 48 hr): 35.7 %/total | Max. (%/total), maximum secretion on average (HL60 cells; Differentiation 72 hr): 45.3 %/total | increase of intracellular Ca2+ concentration in the absence of extracellular Ca2+ [3]: reduced | increase in intracellular Ca2+ concentration upon stimulation after PTX treatment [3]: almost completely inhibited | intracellular Ca2+ concentration [3]: increased | intracellular Ca2+ concentration with or without extracellular Ca2+ [3]: increased irrespective of whether extracellular Ca^2+ was present or not | intracellular Ca2+ concentration [4]: did not increase

Source: patent publication US7285618B1, “Polypeptides having neutrophil stimulating activity” (Japan Tobacco Inc., priority 2000, dated 2007)
